Measurements published in US5041447A, “Oxetanocin-related compounds and pharmaceutical compositions containing them” (priority 1988, dated 1991).
In brackets after ≈: the same amount, converted by molar mass.

Legend:
[1] = system: HIV (human immunodeficiency virus); experiment: Anti-HIV activity: development of virus antigen in HIV-infected MT-4 cells (indirect fluorescent antibody method); format: cell-based; conditions: 4 days, DMSO only 80 to 90%
Protocol: Anti-HIV (human immunodeficiency virus) activity
MT-4 cell (about 100,000 cells/ml) was added into a 24 well tray, and then 100 microliters of a solution containing a predetermined quantity of a compound of this invention was added. After culturing it at 37° C. for 5 hours in 5% (v/v) carbon dioxide incubator, 10^3 to 10^4 infection units of HIV was added and cultured for 4 days. Then, a part of the cultured fluid was coated onto a slide glass and immobilized with acetone, after which development of virus antigen was observed by indirect fluorescent antibody method.
As the primary antibody of the fluorescent antibody method, a serum of AIDS patient was used. As its secondary antibody, FITC-labelled […] was used.

[2] = system: cytomegalovirus (A0169 strain); experiment: Anti-cytomegalovirus activity: plaque formation in human fetal fibroblasts; format: cell-based; conditions: Human betaherpesvirus 5, Fibroblast, 240 h, 100 PFU, 37° C., 10 days
Protocol: Anti-cytomegalovirus activity was determined in the following manner. Thus, a 35 mm.phi. dish containing a single layer of human fetal fibroblasts was infected with 100 PFU (plaque forming units) of cytomegalovirus (A0169 strain). After adsorption for one hour, a medium (0.5% agarose, 2% fetal calf serum) containing a varied concentration of the compound of this invention was superposed thereon, and the whole was cultured at 37° C. for 10 days in 5% (v/v) carbon dioxide incubator, after which the formation of plaque was measured. The results are shown in Table 3 in terms of 50% inhibitory value (IC50).

Row | SMILES | Development of virus antigen (%) ([1]; 3 μg/ml) | Development of virus antigen (%) ([1]; 10 μg/ml) | Development of virus antigen (%) ([1]; 100 μg/ml) | IC50 [2]
1 | Nc1ncnc2c1ncn2[C@@H]1O[C@H](CO)[C@H]1N [Compound No. 16] | 17% | 6% | < 0.1% | 
2 | C=C1[C@H](n2cnc3c(N)ncnc32)O[C@@H]1CO [Compound No. 4] | 10% | 3% | < 0.1% | 
3 | O=c1[nH]cnc2c1ncn2[C@@H]1O[C@H](CO)[C@H]1COS(=O)(=O)O [Compound No. 17] | 60% | 10% | < 0.1% | 
4 | Nc1ncnc2c1ncn2[C@@H]1O[C@H](CO)[C@H]1F [Compound No. 10] | > 90% | 50% | < 0.1% | 
5 | CCCCC(=O)OC[C@H]1O[C@@H](n2cnc3c(N)nc(N)nc32)[C@@H]1CO [Compound No. 15] |  |  |  | > 5 µg/mL
6 | [N-]=[N+]=NC[C@H]1[C@H](n2cnc3c(N)ncnc32)O[C@@H]1CO [Compound No. 2] | 15% | 10% | < 0.1% | 
7 | [N-]=[N+]=N[C@H]1[C@H](n2cnc3c(N)ncnc32)O[C@@H]1CO [Compound No. 11] | > 90% | 75% | < 0.1% | 
8 | CCCCCCCCCCCCCCCC(=O)OC[C@H]1O[C@@H](n2cnc3c(N)ncnc32)[C@@H]1CO [Compound No. 9] | 7% | 3% | < 0.1% | 1.7 µg/mL (≈ 3.47 µM)
9 | Nc1ncnc2c1ncn2[C@@H]1O[C@H](CO)[C@@H]1O [Compound No. 3] | 1% | 0.1% | < 0.1% | 
10 | O=c1[nH]cnc2c1ncn2[C@H]1C[C@@H](CO)O1 [Compound No. 13] | < 0.1% | < 0.1% | < 0.1% | 
11 | Nc1ncnc2c1ncn2[C@H]1C[C@@H](CO)O1 [Compound No. 1] | 0.1% | < 0.1% | < 0.1% | 
12 | CCCCC(=O)OC[C@H]1O[C@@H](n2cnc3c(=O)[nH]c(N)nc32)[C@@H]1CO [Compound No. 14] |  |  |  | > 5 µg/mL
13 | CCCCC(=O)OC[C@H]1O[C@@H](n2cnc3c(N)ncnc32)[C@@H]1CO [Compound No. 8] | 5% | 3% | < 0.1% | 
